Columns and labels:
[1] = test system: grapevines and perennial crops; assay: Crop safety, general statement; type: in vivo; conditions: post-emergence application rates of ≤20 g ae/ha; dormant application or spring application directed under the crops
Excerpt: (§1) Additional examples of application rates for Compound I as a pre-emergence and post-emergence application include 0.25 to 50 g ae/ha, 0.25 to 45 g ae/ha, 0.25 to 40 g ae/ha, 0.25 to 35 g ae/ha, 0.25 to 30 g ae/ha, 0.25 to 25 g ae/ha, 0.25 to 20 g ae/ha, 0.25 to 15 g ae/ha, 0.25 to 10 g ae/ha, 0.25 to 5 g ae/ha, 2.5 to 50 g ae/ha, 5 to 50 g ae/ha, 10 to 50 g ae/ha, 15 to 50 g ae/ha, 20 to 50 g ae/ha, 25 to 50 g ae/ha, 30 to 50 g ae/ha, 35 to 50 g ae/ha, 40 to 50 g ae/ha, 45 to 50 g ae/ha, 5 to 40 g ae/ha, 10 to 40 g ae/ha, 15 to 40 g ae/ha, 20 to 40 g ae/ha, 25 to 40 g ae/ha, 30 to 40 g ae/ha, 35 to 40 g ae/ha, 2.5 to 35 g ae/ha, 2.5 to 30 g ae/ha, 2.5 to 25 g ae/ha, 2.5 to 20 g ae/ha, 2.5 to 15 g ae/ha, 2.5 to 10 g ae/ha, 2.5 to 5 g ae/ha, 5 to 35 g ae/ha, 10 to 30 g ae/ha, 15 to 25 g ae/ha, and 15 to 20 g ae/ha. Further examples of application rates for Compound I as a pre-emergence and post-emergence application include 0.25 g ae/ha, 0.5 g ae/ha, 0.75 g ae/ha, 1 g ae/ha, 1.25 g ae/ha, 1.5 g ae/ha, 1.75 g ae/ha, 2 g ae/ha, 2.25 g ae/ha, 2.5 g ae/ha, 3 g ae/ha, 4 g ae/ha, 5 g ae/ha, 6 g ae/ha, 7 g ae/ha, 8 g ae/ha, 9 g ae/ha, 10 g ae/ha, 12 g ae/ha, 14 g ae/ha, 16 g ae/ha, 18 g ae/ha, 20 g ae/ha, 22 g ae/ha, 24 g ae/ha, 26 g ae/ha, 28 g ae/ha, 30 g ae/ha, 32 g ae/ha, 34 g ae/ha, 36 g ae/ha, 38 g ae/ha, 40 g ae/ha, 42 g ae/ha, 44 g ae/ha, 46 g ae/ha, 48 g ae/ha, and 50 g ae/ha. […]

[2] = test system: commercially relevant broadleaf and grass weeds; assay: Pre- and post-emergence weed control, general statement; type: in vivo; conditions: application rate of 2.5 to 50 g ai/ha; pre-emergence or post-emergence application
Excerpt: as §1

[3] = test system: ERIBO (Conyza bonariensis, hairy fleabane); assay: Field trial, post-emergence directed spring application (April), California vineyards: visual weed control; type: in vivo; conditions: 35 g ai/ha
Excerpt: (§2) As used herein, selective pre- and post-emergence control of undesirable vegetation means preventing, reducing, killing, or otherwise adversely modifying the development of the undesirable vegetation in the presence of crop plants with limited adverse effect on the crop plants. For example, a broadleaf weed control of 80% (rated visually) with crop injury of less than or equal to 20% (rated visually) would constitute selective control. In some embodiments the adverse effect on crop plants is limited to less than 10% visually rated crop injury. Visual crop injury is a composite rating accounting for all phytotoxic effects including chlorosis, necrosis, growth inhibition, epinasty, delays in maturity and seed or fruit deformity. Visual weed control is a composite rating accounting for reductions in pest plant biomass and/or stand reduction.
(§3) Small plot research experiments were conducted in Fresno, Calif., USA to evaluate the pre-emergence and post-emergence herbicidal weed control activity and the vines crop tolerance to pre-emergence and post-emergence application of Compound I and Compound II to the weeds. Application water volume of 100 to 187 liters per hectare (L/ha) was used for all experiments. All treatments were applied with a standard small plot carbon dioxide (CO2) backpack sprayer. All treatments were tank-mixed with Crop Oil Concentrate (COC), a well known adjuvant, at 2.34 L/ha. Experimental emulsifiable concentrate (EC) formulations were used for Compounds I and II. The dimethylammonium (DMA) salt of glyphosate was used in all trials. Pindar® GT is a commercial formulation containing a pre-mix of penoxsulam+oxyfluorfen (10+476 grams of active ingredient per liter (g ai/L), respectively). Vine crop stage was dormant (no leaves on the vines during the winter) or early spring growth at the time of Compound I or Compound II application. Generally, weeds were not emerged for the pre-emergence treatments or were at the two to six-leaf stage at the time of the post-emergence herbicide application.
(§4) Tables 1, 2 and 6 provide weed control results from pre-emergence applications of Compounds I and/or II prior to weed emergence; Tables 4, 7 and 8 provide weed control results from post-emergence applications of Compounds I and/or II applied to actively growing weeds; Tables 3 and 5 provide vine response data from pre-emergence and post-emergence applications of Compound I respectively.

[4] = test system: EROCI (Erodium cicutarium, redstem filaree); assay: as above; type: in vivo; conditions: 35 g ai/ha
Excerpt: as §2, §3, §4

[5] = test system: AGRRE (Agropyron repens, quackgrass); assay: as above; type: in vivo; conditions: 35 g ai/ha
Excerpt: as §2, §3, §4

[6] = test system: MALPA (Malva parviflora, smallflower malva); assay: as above; type: in vivo; conditions: 35 g ai/ha
Excerpt: as §2, §3, §4

[7] = test system: PANCA (Panicum capillare, witchgrass); assay: as above; type: in vivo; conditions: 35 g ai/ha
Excerpt: as §2, §3, §4

[8] = test system: SETFA (Setaria faberi, giant foxtail); assay: as above; type: in vivo; conditions: 35 g ai/ha
Excerpt: as §2, §3, §4

VITSS (Vitis spp, grape) = conditions: in vivo
Description: as §3, with “herbicide application. […]” for “herbicide application.”

| Structure (SMILES) | crop injury to grapevines and perennial crops [1] | efficacy on commercially relevant broadleaf and grass weeds [2] | % Visual Control 60 DAA ERIBO [3] | % Visual Control 60 DAA EROCI [4] | % Visual Control 60 DAA AGRRE [5] | % Visual Control 60 DAA MALPA [6] | % Visual Control 60 DAA PANCA [7] | % Visual Control 60 DAA SETFA [8] | VITSS 60 DAA Node Count (VITSS (Vitis spp, grape)) | VITSS 60 DAA Vine Length (cm) (VITSS (Vitis spp, grape)) |
| --- | --- | --- | --- | --- | --- | --- | --- | --- | --- | --- |
| COc1c(Cl)ccc(-c2nc(C(=O)O)c(Cl)c(N)c2F)c1F [Compound II, 4-amino-3-chloro-5-fluoro-6-(4-chloro-2-fluoro-3-methoxyphenyl)pyridine-2-carboxylic acid] | little to no crop injury | highly efficacious | – | – | – | – | – | – | – | – |
| COc1cnc(OC)n2nc(NS(=O)(=O)c3c(OCC(F)F)cccc3C(F)(F)F)nc12 [Penoxsulam, reference compound] | – | – | 85% | 87% | 87% | 85% | 85% | 97% | 20 | 89 cm |

From US20220039384A1, “SELECTIVE WEED CONTROL WITH HALAUXIFEN OR 4-AMINO-3-CHLORO-5-FLUORO-6-(4-CHLORO-2-FLUORO-3-METHOXYPHENYL) PYRIDINE-2-CARBOXYLIC ACID OR DERIVATIVES THEREOF IN VINEYARDS OR PERENNIAL CROPS” (Corteva Agriscience LLC, priority 2013, published 2022)
